The record followed here is US11253516B2, “N2,N4-diphenylpyrimidine-2,4-diamine derivative, method for preparing same, and pharmaceutical composition containing same as active ingredient for prevention or treatment of cancer” (Korea Research Institute of Chemical Technology, priority 2017, dated 2022).

For one experiment, the target named is EGFR del19/T790M (Homo sapiens (Human), UniProt P00533, DEL746-750/T790M). Briefly: HTRF enzyme assay, EGFR del19/T790M. The following applies: recombinant enzyme. The experiment is classed as biochemical. As to the method:
(§1) The measurement of an activity on wild-type and EGFR mutation enzyme of the compound of the present invention was experimented by utilizing the HTRF system sold by Cisbio, as follow.
(§2) The composition of the assay buffer used in the activity measurement was 50 mM Tris-HCl pH 7.5, 100 mM NaCl, 7.5 mM MgCl2, 3 mM KCl, 0.01% Tween 20, 0.1% BSA, 1 mM DTT. The enzymatic reaction was carried out hereto by using the peptide substrate labeled with ATP of […] concentration and biotin of […] concentration. The analysis of an EGFR activity inhibitory effect of the compound was carried out in accordance with the analysis reaction recipe below.
(§3) Component 1: […] of EGFR wild-type or mutation enzyme
(§4) Component 2: […] of compound solution
(§5) Component 3: […] of peptide labeled with ATP and biotin
(§6) The enzymatic reaction was initiated by mixing Component 1 and Component 2 first, and then, adding component 3. After the reaction for 2 hours at 37° C., […] of a measurement solution consisting of streptavidin-XL665 provided by Cisbio and anti-phosphotyrosine antibody labeled with europium was added to the enzymatic reaction solution and reacted for 1 hour at ambient temperature. […] The measurement values measured at the seven concentrations of the compound were analyzed by using the Prism program (version 5.01, Graphpad Software, Inc.), and IC50 value of the compound was calculated, which is an inhibitory ability indicator.

In experiment [1] the test system is Ba/F3 EGFR del19 cell line. The experiment is described as follows: CellTiter-Glo cell viability, Ba/F3 EGFR del19. The experiment is classed as cell-based. The following applies: 72 hours. On the procedure: (§7) The measurement of an activity on wild-type and mutation Ba/F3 EGFR cell line of the compound of the present invention was experimented by utilizing the CellTiter-Glo system sold by Promega, as follow. The CellTiter-Glo assay is a method for measuring the ATP present in cells in cell culture conditions to determine the cell viability.
(§8) The analysis of an EGFR inhibitory ability effect of the compound was carried out in accordance with the analysis reaction recipe below.
(§9) After the reaction of 72 hours, the plate treated with the compound was allowed to stand for 30 minutes at ambient temperature, and then, was further treated with 100 μl of the reagent, and was shaked for 10 minutes at ambient temperature. […] The measurement values measured at the eight concentrations of the compound were analyzed by using the Prism program (version 5.01, Graphpad Software, Inc.), and IC50 value of the compound was calculated, which is an inhibitory ability indicator.

Another experiment has as its target EGFR del19/T790M/C797S (Homo sapiens, UniProt P00533, C797S/DEL746-750/T790M). Briefly: HTRF enzyme assay, EGFR del19/T790M/C797S. The conditions noted are these: HTRF, recombinant enzyme; read-out: EGFR del19/T790M/C797S IC50. In kind it is biochemical. As to the method: as §1, §2, §3, §4, §5, §6
The next experiment concerns Ba/F3 EGFR wt. cell line. The experiment is described as follows: CellTiter-Glo cell viability, Ba/F3 EGFR wild-type. The conditions noted are these: 72 hours. The experiment is classed as cell-based. On the procedure:
as §7, §8, §9

Experiment [2] relates to Ba/F3 EGFR del19/T790M cell line. Briefly: CellTiter-Glo cell viability, Ba/F3 EGFR del19/T790M. In kind it is cell-based. The conditions noted are these: CellTiter-Glo, 72 hours, read-out: Ba/F3 EGFR del19/T790M IC50. As to the method: as §7, §8
(§10) After the reaction of 72 hours, the plate treated with the compound was allowed to stand for 30 minutes at ambient temperature, and then, was further treated with 100 μl of the reagent, and was shaked for 10 minutes at ambient temperature.

In a further experiment the target is EGFR del19 (Homo sapiens (Human), UniProt P00533, DEL746-750). The experiment is described as follows: HTRF enzyme assay, EGFR del19. The experiment is classed as biochemical. The conditions noted are these: recombinant enzyme. On the procedure:
as §1, §2, §3, §4, §5, §6

Another experiment deals with EGFR wt. (Homo sapiens (Human), UniProt P00533). The experiment is described as follows: HTRF enzyme assay, wild-type EGFR. The following applies: recombinant enzyme. In kind it is biochemical. As to the method: as §1, §2, §3, §4, §5, §6
Chain of EGFR wt. (P00533 25-1210): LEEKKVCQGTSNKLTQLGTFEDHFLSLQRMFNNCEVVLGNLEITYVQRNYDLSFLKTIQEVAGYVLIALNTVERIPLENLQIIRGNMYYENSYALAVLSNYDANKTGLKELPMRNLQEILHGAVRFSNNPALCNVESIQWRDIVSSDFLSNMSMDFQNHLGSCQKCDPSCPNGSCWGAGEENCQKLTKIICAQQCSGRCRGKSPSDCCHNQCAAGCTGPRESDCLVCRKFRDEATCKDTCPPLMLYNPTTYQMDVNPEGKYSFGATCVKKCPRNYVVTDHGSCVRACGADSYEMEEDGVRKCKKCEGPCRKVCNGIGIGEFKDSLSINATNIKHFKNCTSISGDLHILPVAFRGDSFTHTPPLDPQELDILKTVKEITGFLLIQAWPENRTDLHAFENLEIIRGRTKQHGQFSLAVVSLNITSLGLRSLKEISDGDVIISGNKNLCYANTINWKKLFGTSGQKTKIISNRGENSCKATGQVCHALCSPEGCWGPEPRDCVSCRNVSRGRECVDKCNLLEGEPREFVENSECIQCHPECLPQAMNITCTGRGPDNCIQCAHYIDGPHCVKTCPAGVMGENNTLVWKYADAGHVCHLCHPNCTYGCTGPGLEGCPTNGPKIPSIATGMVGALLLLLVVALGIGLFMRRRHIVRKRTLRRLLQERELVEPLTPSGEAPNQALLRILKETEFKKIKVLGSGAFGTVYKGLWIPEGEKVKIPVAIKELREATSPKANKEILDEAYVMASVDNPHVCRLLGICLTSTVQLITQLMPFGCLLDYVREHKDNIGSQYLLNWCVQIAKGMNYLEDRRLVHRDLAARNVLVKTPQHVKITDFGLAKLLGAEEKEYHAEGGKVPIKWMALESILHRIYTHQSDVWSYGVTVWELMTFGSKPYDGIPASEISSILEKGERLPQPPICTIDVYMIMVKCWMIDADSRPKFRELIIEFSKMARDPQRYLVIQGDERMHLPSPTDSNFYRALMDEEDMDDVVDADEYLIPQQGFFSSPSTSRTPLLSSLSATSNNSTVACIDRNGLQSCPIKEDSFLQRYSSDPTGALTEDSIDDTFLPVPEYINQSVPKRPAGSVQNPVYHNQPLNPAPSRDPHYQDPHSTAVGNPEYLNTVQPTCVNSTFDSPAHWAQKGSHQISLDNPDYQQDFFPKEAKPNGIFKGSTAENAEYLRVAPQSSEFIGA
In experiment [3] the test system is Ba/F3 EGFR del19/T790M/C797S cell line. The experiment is described as follows: CellTiter-Glo cell viability, Ba/F3 EGFR del19/T790M/C797S. The experiment is classed as cell-based. The conditions noted are these: CellTiter-Glo, 72 hours, read-out: Ba/F3 EGFR del19/T790M/C797S IC50. On the procedure: as §7, §8, §10

SMILES strings stand for the structures.

Chain of EGFR del19/T790M/C797S (P00533 with tags, fused parts or gaps C797S/DEL746-750/T790M limits assumed): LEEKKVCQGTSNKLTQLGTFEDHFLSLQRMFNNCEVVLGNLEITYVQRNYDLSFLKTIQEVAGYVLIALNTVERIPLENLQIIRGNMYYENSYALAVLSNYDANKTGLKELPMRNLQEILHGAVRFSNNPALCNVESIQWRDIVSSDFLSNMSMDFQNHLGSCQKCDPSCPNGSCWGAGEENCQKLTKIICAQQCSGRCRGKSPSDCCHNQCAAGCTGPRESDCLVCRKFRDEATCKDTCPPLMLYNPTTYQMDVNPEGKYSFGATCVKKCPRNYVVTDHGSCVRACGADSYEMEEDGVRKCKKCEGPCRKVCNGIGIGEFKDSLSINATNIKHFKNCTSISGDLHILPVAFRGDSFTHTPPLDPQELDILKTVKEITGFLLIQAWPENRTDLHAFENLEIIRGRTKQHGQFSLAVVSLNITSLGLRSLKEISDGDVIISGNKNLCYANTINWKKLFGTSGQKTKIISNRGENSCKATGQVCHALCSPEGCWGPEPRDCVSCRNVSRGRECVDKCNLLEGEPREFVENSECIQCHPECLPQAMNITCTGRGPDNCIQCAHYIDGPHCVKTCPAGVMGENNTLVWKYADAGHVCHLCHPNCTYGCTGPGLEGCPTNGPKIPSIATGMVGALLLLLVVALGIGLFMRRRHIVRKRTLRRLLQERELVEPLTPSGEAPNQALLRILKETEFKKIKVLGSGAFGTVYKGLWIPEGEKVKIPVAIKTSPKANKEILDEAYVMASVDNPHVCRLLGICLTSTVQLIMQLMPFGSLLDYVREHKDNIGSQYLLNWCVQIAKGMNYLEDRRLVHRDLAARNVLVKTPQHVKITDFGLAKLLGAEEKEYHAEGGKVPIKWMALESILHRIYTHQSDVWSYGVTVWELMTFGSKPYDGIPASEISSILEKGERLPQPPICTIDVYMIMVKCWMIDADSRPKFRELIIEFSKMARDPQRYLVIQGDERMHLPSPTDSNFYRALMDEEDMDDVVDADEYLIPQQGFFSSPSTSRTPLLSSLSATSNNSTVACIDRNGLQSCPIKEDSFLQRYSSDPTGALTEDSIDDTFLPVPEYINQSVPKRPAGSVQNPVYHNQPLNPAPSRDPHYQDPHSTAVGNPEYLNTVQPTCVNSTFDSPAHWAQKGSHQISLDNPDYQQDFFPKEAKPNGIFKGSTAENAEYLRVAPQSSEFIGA
Chain of EGFR del19/T790M (P00533 other isoform, or with tags, fused parts or gaps T790M/del 1-668/del 746-750 limits assumed): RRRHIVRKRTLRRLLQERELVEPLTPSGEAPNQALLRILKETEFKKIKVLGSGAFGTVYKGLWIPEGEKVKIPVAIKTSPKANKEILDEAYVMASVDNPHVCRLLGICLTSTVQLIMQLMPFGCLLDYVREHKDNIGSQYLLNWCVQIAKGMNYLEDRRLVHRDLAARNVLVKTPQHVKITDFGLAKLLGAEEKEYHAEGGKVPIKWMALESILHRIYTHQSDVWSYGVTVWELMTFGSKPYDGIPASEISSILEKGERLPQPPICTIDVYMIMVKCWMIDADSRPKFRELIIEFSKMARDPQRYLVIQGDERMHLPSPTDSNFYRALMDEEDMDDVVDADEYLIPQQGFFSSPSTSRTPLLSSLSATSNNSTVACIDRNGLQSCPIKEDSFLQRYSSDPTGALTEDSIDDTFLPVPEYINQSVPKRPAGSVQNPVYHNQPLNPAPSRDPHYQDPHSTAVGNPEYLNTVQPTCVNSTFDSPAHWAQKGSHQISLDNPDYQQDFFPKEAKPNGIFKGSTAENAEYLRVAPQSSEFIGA
Chain of EGFR del19 (P00533 other isoform, or with tags, fused parts or gaps del 1-668/del 746-750 limits assumed): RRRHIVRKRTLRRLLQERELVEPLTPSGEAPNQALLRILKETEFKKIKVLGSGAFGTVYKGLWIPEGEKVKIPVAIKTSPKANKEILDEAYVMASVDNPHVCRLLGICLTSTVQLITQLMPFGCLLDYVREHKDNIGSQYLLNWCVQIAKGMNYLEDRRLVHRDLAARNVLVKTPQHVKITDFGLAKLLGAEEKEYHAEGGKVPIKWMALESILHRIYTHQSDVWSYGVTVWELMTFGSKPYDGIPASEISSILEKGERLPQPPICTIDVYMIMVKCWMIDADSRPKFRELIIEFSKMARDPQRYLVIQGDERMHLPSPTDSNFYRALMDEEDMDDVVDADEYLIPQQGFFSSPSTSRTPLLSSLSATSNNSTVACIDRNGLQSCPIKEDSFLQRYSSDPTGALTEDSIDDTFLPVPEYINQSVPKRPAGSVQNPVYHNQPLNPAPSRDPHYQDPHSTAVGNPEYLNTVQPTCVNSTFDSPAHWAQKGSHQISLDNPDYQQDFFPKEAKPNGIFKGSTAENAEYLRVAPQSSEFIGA

Consider `COc1cc(C2CCN(C)CC2)ccc1Nc1ncc(Cl)c(Nc2ccccc2NS(C)(=O)=O)n1` [Example 12, N-(2-((5-chloro-2-((2-methoxy-4-(1-methylpiperidin-4-yl)phenyl)amino)pyrimidin-4-yl)amino)phenyl)methanesulfonamide], for which the IC50 at EGFR del19/T790M amounted to 130 nM; in experiment [1], 330 nM; on EGFR del19/T790M/C797S it was 2 nM; in the experiment with Ba/F3 EGFR wt. cell line it was 320 nM; in experiment [2], 380 nM; at EGFR del19, 22 nM. In addition, the IC50 at EGFR wt. is 1200 nM; in experiment [3], 80 nM.

Take `COc1cc(C2CCN(C3CCN(C)CC3)CC2)ccc1Nc1ncc(Cl)c(Nc2ccccc2NS(C)(=O)=O)n1` [Example 17, N-(2-((5-chloro-2-((2-methoxy-4-(1′-methyl-[1,4′-bipiperidin]-4-yl)phenyl)amino)pyrimidin-4-yl)amino)phenyl)methanesulfonamide]: the IC50 at EGFR del19/T790M amounted to 78 nM; in experiment [1], 2200 nM; at EGFR del19/T790M/C797S, 12 nM; in the experiment with Ba/F3 EGFR wt. cell line, 2100 nM; in experiment [2], 1700 nM; at EGFR del19, 4 nM. For the same molecule, the IC50 at EGFR wt. came out at 600 nM; in experiment [3], 680 nM.

As to `COc1cc(C2CCNCC2)ccc1Nc1ncc(Br)c(Nc2ccccc2NS(C)(=O)=O)n1` [Example 3, N-(2-((5-bromo-2-((2-methoxy-4-(piperidin-4-yl)phenyl)amino)pyrimidin-4-yl)amino)phenyl)methanesulfonamide], the IC50 came to 5 nM on EGFR del19/T790M; 1000 nM in experiment [1]; 2 nM on EGFR del19/T790M/C797S; 4100 nM in the experiment on Ba/F3 EGFR wt. cell line; 1200 nM in experiment [2]; 18 nM on EGFR del19. Also, the figures for the IC50 (at EGFR wt.; in experiment [3]) were 840 nM and 1600 nM, respectively.

For `COc1cc(N2CCC(N3CCNCC3)CC2)ccc1Nc1ncc(Cl)c(Nc2ccccc2NS(C)(=O)=O)n1` [Example 21, N-(2-((5-chloro-2-((2-methoxy-4-(4-(piperazin-1-yl)piperidin-1-yl)phenyl)amino)pyrimidin-4-yl)amino)phenyl)methanesulfonamide], the IC50 on EGFR del19/T790M was determined as 14 nM; in experiment [1] it was 3600 nM; on EGFR del19/T790M/C797S, 5 nM; with Ba/F3 EGFR wt. cell line it was 2200 nM; in experiment [2], 550 nM; at EGFR del19 it was 0.1 nM. Moreover, the IC50 was found to be 160 nM at EGFR wt. and 1700 nM in experiment [3].

Take `COc1cc(C2CCNCC2)ccc1Nc1ncc(Cl)c(Nc2ccccc2NS(N)(=O)=O)n1` [Example 6, 4-(4-((5-chloro-4-((2-(sulfamoylamino)phenyl)amino)pyrimidin-2-yl)amino)-3-methoxyphenyl)piperidine]: the IC50 on EGFR del19/T790M is 10 nM; in experiment [1], 6400 nM; at EGFR del19/T790M/C797S, 11 nM; in the experiment with Ba/F3 EGFR wt. cell line, greater than 15000 nM; in experiment [2], 9000 nM; on EGFR del19, 26 nM. Besides, the IC50 at EGFR wt. worked out at 390 nM; in experiment [3], 5800 nM.

`COc1cc(N2CCNCC2)ccc1Nc1ncc(Cl)c(Nc2ccccc2NS(N)(=O)=O)n1` [Example 29, 4-(4-((5-chloro-4-((2-(sulfamoylamino)phenyl)amino)pyrimidin-2-yl)amino)-3-methoxyphenyl)piperazine]: the IC50 on EGFR del19/T790M was found to be 4 nM; in experiment [1] it was 1900 nM; on EGFR del19/T790M/C797S, 7 nM; in the experiment on Ba/F3 EGFR wt. cell line it was 2800 nM; in experiment [2] it was 2100 nM; on EGFR del19 it was 5 nM. In addition, the IC50 at EGFR wt. turned out to be 1200 nM; in experiment [3], 2900 nM.

As for `COc1cc(C2CCN(C3CCN(C(C)=O)CC3)CC2)ccc1Nc1ncc(Cl)c(Nc2ccccc2NS(C)(=O)=O)n1` [Example 18, N-(2-((2-((4-(1′-acetyl-[1,4′-bipiperidin]-4-yl)-2-methoxyphenyl)amino)-5-chloropyrimidin-4-yl)amino)phenyl)methanesulfonamide], the IC50 at EGFR del19/T790M came to 92 nM; in experiment [1], 2700 nM; at EGFR del19/T790M/C797S, 30 nM; in the experiment with Ba/F3 EGFR wt. cell line it was 4400 nM; in experiment [2], 1400 nM; at EGFR del19, 13 nM. Further, the IC50 on EGFR wt. worked out at 970 nM; in experiment [3], 2000 nM.

Regarding `COc1cc(N2CCN(C)CC2)ccc1Nc1ncc(Cl)c(Nc2ccccc2NS(C)(=O)=O)n1` [Example 28, N-(2-((5-chloro-2-((2-methoxy-4-(4-methylpiperazin-1-yl)phenyl)amino)pyrimidin-4-yl)amino)phenyl)methanesulfonamide], the IC50 at EGFR del19/T790M is 27 nM; in experiment [1], 1400 nM; on EGFR del19/T790M/C797S, 9 nM; in the experiment on Ba/F3 EGFR wt. cell line, 1400 nM; in experiment [2], 690 nM; at EGFR del19, 0.9 nM. In addition, the IC50 turned out to be 640 nM at EGFR wt. and 1700 nM in experiment [3].

`COc1cc(C2CCN(CCO)CC2)ccc1Nc1ncc(Cl)c(Nc2ccccc2NS(C)(=O)=O)n1` [Example 13, N-(2-((5-chloro-2-((4-(1-(2-hydroxyethyl)piperidin-4-yl)-2-methoxyphenyl)amino)pyrimidin-4-yl)amino)phenyl)methanesulfonamide]: the IC50 on EGFR del19/T790M was found to be 250 nM; in experiment [1], 980 nM; on EGFR del19/T790M/C797S, 33 nM; in the experiment on Ba/F3 EGFR wt. cell line, 4400 nM; in experiment [2], 650 nM; at EGFR del19, 13 nM. Moreover, the IC50 on EGFR wt. was 1900 nM; in experiment [3], 1500 nM.

Consider `COc1cc(N2CCC(N3CCN(C(C)=O)CC3)CC2)ccc1Nc1ncc(Cl)c(Nc2ccccc2NS(C)(=O)=O)n1` [Example 19, N-(2-((2-((4-(4-(4-acetylpiperazin-1-yl)piperidin-1-yl)-2-methoxyphenyl)amino)-5-chloropyrimidin-4-yl)amino)phenyl)methanesulfonamide], for which the IC50 on EGFR del19/T790M was determined as 69 nM; in experiment [1], 1100 nM; on EGFR del19/T790M/C797S, 42 nM; in the experiment on Ba/F3 EGFR wt. cell line, 3100 nM; in experiment [2], 660 nM; on EGFR del19 it was 0.7 nM. Also, the IC50 at EGFR wt. was 700 nM; in experiment [3] it was 970 nM.

Consider `COc1cc(C2CCNCC2)c(C)cc1Nc1ncc(Cl)c(Nc2ccccc2NS(C)(=O)=O)n1` [Example 2, N-(2-((5-chloro-2-((2-methoxy-5-methyl-4-(piperidin-4-yl)phenyl)amino)pyrimidin-4-yl)amino)phenyl)methanesulfonamide], for which the IC50 on EGFR del19/T790M was determined as 12 nM; in experiment [1], 3800 nM; on EGFR del19/T790M/C797S, 3 nM; with Ba/F3 EGFR wt. cell line, 2800 nM; in experiment [2], 1800 nM; on EGFR del19, 12 nM. For the same molecule, the values for the IC50 (at EGFR wt.; in experiment [3]) were 730 nM and 2400 nM, respectively.

`COc1cc(N2CCN(C3CCN(C)CC3)CC2)ccc1Nc1ncc(Cl)c(Nc2ccccc2NS(C)(=O)=O)n1` [Example 25, N-(2-((5-chloro-2-((2-methoxy-4-(4-(1-methylpiperidin-4-yl)piperazin-1-yl)phenyl)amino)pyrimidin-4-yl)amino)phenyl)methanesulfonamide]: the IC50 on EGFR del19/T790M came to 18 nM; in experiment [1], 210 nM; on EGFR del19/T790M/C797S it was 9 nM; in the experiment on Ba/F3 EGFR wt. cell line, 340 nM; in experiment [2], 780 nM; at EGFR del19 it was 0.2 nM. Also, the IC50 at EGFR wt. was 300 nM; in experiment [3], 27 nM.
